Test system: M229 and M245 cell lines
Assay: WGS of short-term treated cell lines: treatment-specific ecDNA+CGR genomic spans
Assay type: cell-based, human
Conditions: co-treatment with MAPKi for 10 to 11 days, FIG. 5H
Text: FIGS. 5A-5H. Resistance-driver ecDNAs and HSRs dynamically track with resistance and DNA-PKi prevents size-expansion of ecDNAs and CGRs early on MAPKi treatment. FIGS. 5A to 5C, Metaphase DNA-FISH of paired parental and acquired resistant BRAF^V600MUT (5A and 5B) or NRAS^Q61MUT (5C) cell lines without or with drug withdrawal showing ecDNA- or HSR-amplicons harboring BRAF, RAF1 or NRAS. Left, representative images; right, quantifications per cell. Ruler, 15 μm. P values (Unpaired two-tailed Student's t-test): *, p<0.05; **, p<0.01; ***, p<0.001. […] FIG. 5G: Representative images (left) and quantification (right) of metaphase DNA-FISH showing HSR harboring BRAF in M249 cells treated with vehicle or BRAFi+MEKi, with or without NU7026 and/or ABT888 for 31 days. […] FIG. 5H: Average total genomic spans of treatment-specific ecDNAs+CGRs in M229 and M245 cell lines (background ecDNA+CGR spans detected in vehicle-treated cells were filtered). […]
Genomic DNA (gDNA) and total RNA were extracted from frozen tumor tissue preserved in RNALater or snap-frozen tumor tissue using the QIAGEN AllPrep DNA/RNA Mini Kit and the Ambion mirVana miRNA Isolation Kit. […] After library construction, indexed libraries were quantified for equal molar pooling and paired-end sequenced with a read length of 2×150 bp on the Illumina NovaSeq 6000 S4 platform. […]

## O=c1cc(N2CCOCC2)oc2c1ccc1ccccc12 [NU7026]
  MAPKi-elicited treatment-specific ecDNA+CGR genomic spans: blunted the expansion of ecDNA+CGR genomic spans in both cell lines
